# Results reported in US6551602B1, “Skin care composition containing conjugated linoleic acid and a phenolic compound” (Conopco, Inc., priority 1999, dated 2003).
# Legend:
# Format in all cases: cell-based
# [1] = system: decorin synthesis in human dermal fibroblasts; assay: Dot blot assay for decorin protein in dermal fibroblast conditioned medium; conditions: 24 h, relative to vehicle treated control = 100 arbitrary units
# Method: Procedure for Measuring Procollagen-I and Decorin Synthesis in Human Dermal Fibroblasts
# Preparation of Dermal Fibroblast Conditioned Medium
# Primary human foreskin fibroblasts at passage 2 (P2) were seeded into 12-well plates at 10000 cells/cm^2 and maintained for 24 hours in an atmosphere of 5% carbon dioxide and 4% oxygen in Dulbeccos Modified Eagles Medium (DMEM) supplemented with 10% foetal calf serum. After this time the cells were washed with serum free DMEM and then incubated in fresh serum free DMEM for a further 60 hours.
# The fibroblast monolayers were then washed again with serum free DMEM. […] This fibroblast conditioned medium was either analysed immediately or snap frozen in liquid nitrogen and stored at −70° C. for future analysis. The cells were then counted and data from the dot-blot analysis subsequently standardised to cell number. […]
# Membranes prepared for decorin analysis were blocked with 3% (w/v) BSA/0.1% (v/v) Tween 20 in PBS, whilst those for procollagen-I analysis were blocked with 5% (w/v) non fat dried milk powder/0.05% Tween 20 in PBS. […] Dot intensity was assessed by computer-assisted image analysis using the quantification tools in ImageQuant™, standardised to cell number and the effects of various test reagents on decorin and procollagen-I synthesis were determined relative to a vehicle treated control value of 100 arbitrary units. […]
# [2] = system: PGE2 production by human skin fibroblasts; assay: Fibroblast PGE2 assay (PMA-induced); conditions: PMA 10 nM
# Method: Fibroblasts PGE2 and ICAM Assay
# Intracellular adhesion molecules (ICAM) and PEG2 production by human skin fibroblasts can be induced by the inflammatory stimulus PMA (phorbal myristate acetate). PMA represents an external stressor which induces oxidative stress and inflammatory responses in cells. This model is used to model inflammation in vivo.
# (§1) Primary human foreskin fibroblasts at passage 2 (P2) were seeded into 96-well plates at 10000 cells/well and maintained for 24 hours in an atmosphere of 5% carbon dioxide in Dulbeccos Modified Eagles Medium (DMEM) supplemented with 10% foetal calf serum. The test substances as indicated in the table 7 below were added to fresh cell media (DMEM, supplemented with 10% foetal calf serum) in dimethylsulphoxide and ethanol final concentration<1%) in triplicate and incubated for a further 24 hours. Phorbal myristate acetate (PMA) (Sigma) was added 10 nM to the media and the cells incubated for a further 24 hours. […] The fibroblasts/media were then analysed as described below immediately or snap frozen in liquid nitrogen and stored at −70° C. for future analysis. The cells were then counted and data from the dot-blot analysis subsequently standardised to cell number.
# Prostaglandin E2 (PGE2) Assay
# Volumes of 50 μl culture medium were taken for PGE2 assay after gently shaking the culture plate. PGE2 levels in the medium were determined with a Biotrak PGE2 immunoassay kit (Amersham, UK). The assay is based on the competition between unlabelled PGE2 in the sample and a fixed quantity of horseradish peroxidase labelled PGE2 for a limited amount of fixed PGE2 specific antibody. Concentrations of unlabelled sample PGE2 are determined according to a standard curve which was obtained at the same time.
# [3] = system: ICAM production by human skin fibroblasts; assay: Fibroblast ICAM-1 assay (PMA-induced); conditions: PMA 10 nM
# Method: as §1, with “Fibroblasts PGE2 and ICAM Assay Intracellular adhesion molecules (ICAM) and PEG2 production by human skin fibroblasts can be induced by the inflammatory stimulus PMA (phorbal myristate acetate). PMA represents an external stressor which induces oxidative stress and inflammatory responses in cells. This model is used to model inflammation in vivo. Primary” for “Primary”, “hours.” for “hours. Phorbal myristate acetate (PMA) (Sigma) was added 10 nM to the media and the cells incubated for a further 24 hours.”, “number. […] The soluble ICAM-1 was assessed with commercially available immunoenzymometric assay kit (R&D Systems). Concentrations of ICAM-1 in the samples were determined based on parallel running standard curve.” for “number.”
compound,measurement,setting,value
"O=C(O[C@@H]1Cc2c(O)cc(O)cc2O[C@@H]1c1cc(O)c(O)c(O)c1)c1cc(O)c(O)c(O)c1 [EGCG, epigallocatechin gallate]",Decorin,[1]; 0.5 μg/ml EGCG,−99.6%
same,% of Inhibition of Fibroblast PGE2 Levels,[2]; EGCG 5 μM,35.6%
same,% of inhibition of fibroblast ICAM production,[3]; EGCG 5 μM,4.5%
O=c1c(-c2ccc(O)cc2)coc2cc(O)cc(O)c12 [genistein],inhibition at 5 µM,"[2]; Homo sapiens, Skin fibroblast, genistein 5 μM, read-out: % of Inhibition of Fibroblast PGE2 Levels",52%
conjugated linoleic acid [CLA],Decorin,[1]; 0.1 μM CLA,68.29%
same,% of Inhibition of Fibroblast PGE2 Levels,[2]; CLA 0.1 μM,16.9%
same,% of Inhibition of Fibroblast PGE2 Levels,[2]; CLA 5 μM,14.5%
same,% of inhibition of fibroblast ICAM production,[3]; CLA 1 μM,27.7%
